The test system of assay [1] is patients with NSCLC resistant to gefitinib or erlotinib. Conditions: cited from earlier work.
Assay [2] relates to EGFR T790M/L858R Ba/F3 cell line. The assay can be described thus: Ba/F3 cell proliferation (MTS assay), EGFR T790M/L858R. The class given is cell-based, murine. Particulars: for inhibition at 1 µM: compound at 1 μM, EGFR T790M/L858R Ba/F3, read-out: Inhibition of proliferation, Activity (% DMSO control). The procedure:
The selectivity between wild-type EGFR and EGFR containing one or more mutations as described herein can also be measured using cellular proliferation assays where cell proliferation is dependent on kinase activity. […] Proliferation assays are performed at a range of inhibitor concentrations (e.g., 10 μM, 3 μM, 1.1 μM, 330 nM, 110 nM, 33 nM, I1 nM, 3 nM, 1 nM) and an EC50 is calculated.
All cell lines were maintained in RPMI 1640 (Cellgro; Mediatech Inc., Herndon, Calif.) supplemented with 10% FBS 100 units/mL penicillin, 100 units/mL streptomycin, and 2 mM glutamine. […] The EGFR I941R mutation was introduced via site directed mutagenesis using the Quick Change Site-Directed Mutagenesis kit (Stratagene; La Jolla, Calif.) according to the manufacturer's instructions. All constructs were confirmed by DNA sequencing. The constructs were shuttled into the retroviral vector JP1540 using the BD Creator™ System (BD Biosciences). Ba/F3 cells were infected with retrovirus and according to standard protocols, as described previously (Zhou 2009). Stable clones were obtained by selection in puromycin (2 μg/ml).
Growth and inhibition of growth was assessed by MTS assay and was performed according to previously established methods (Zhou 2009). The MTS assay is a colorimetric method for determining the number of viable cells that is based on the bioreduction of MTS by cells to a formazan product that is soluble in cell culture medium and can be detected spectrophotometrically. […] All experimental points were set up in six wells and all experiments were repeated at least three times. […] The curves were fitted using a non-linear regression model with a sigmoidal dose response.
(Tetrazolium assays rely on reduction of a dye to a coloured formazan, in cell work by metabolically active cells.)

The subject of assay [3] is EGFR L858R/T790M/C797S Ba/F3 cell line. The assay can be described thus: Ba/F3 cell proliferation (MTS assay), EGFR L858R/T790M/C797S. Type of assay: cell-based, murine. Particulars: Mus musculus, BaF3, compound at 1 μM, read-out: Inhibition of proliferation, Activity (% DMSO control). The source says: The selectivity between wild-type EGFR and EGFR containing one or more mutations as described herein can also be measured using cellular proliferation assays where cell proliferation is dependent on kinase activity. For example, murine Ba/F3 cells transfected with a suitable version of wild-type EGFR (such as VIII; containing a WT EGFR kinase domain), or Ba/F3 cells transfected with L858R/T790M, Del/T790M/L718Q, L858R/T790M/L718Q, L858R/T790M/C797S, Del/T790M/C797S, L858R/T790M/I941R, or Exon 19 deletion/T790M can be used. Proliferation assays are performed at a range of inhibitor concentrations (e.g., 10 μM, 3 μM, 1.1 μM, 330 nM, 110 nM, 33 nM, I1 nM, 3 nM, 1 nM) and an EC50 is calculated.
The EGFR mutant L858R, Del E746_A750, L858R/T790M, DelE746_A750/T790M, L858R/T790M/C797S and Del/T790M/C797S Ba/F3 cells were previously described (Zhou et al., Nature 462, (2009), 1070-1074). All cell lines were maintained in RPMI 1640 (Cellgro; Mediatech Inc., Herndon, Calif.) supplemented with 10% FBS 100 units/mL penicillin, 100 units/mL streptomycin, and 2 mM glutamine. L858R cells were maintained in ACL-4 media (Invitrogen, Carlsbad, Calif.) supplemented with 5% FBS, 100 units/mL penicillin, 100 units/mL streptomycin, and 2 mM glutamine. The EGFR I941R mutation was introduced via site directed mutagenesis using the Quick Change Site-Directed Mutagenesis kit (Stratagene; La Jolla, Calif.) according to the manufacturer's instructions. All constructs were confirmed by DNA sequencing. The constructs were shuttled into the retroviral vector JP1540 using the BD Creator™ System (BD Biosciences). Ba/F3 cells were infected with retrovirus and according to standard protocols, as described previously (Zhou 2009). Stable clones were obtained by selection in puromycin (2 μg/ml).
Growth and inhibition of growth was assessed by MTS assay and was performed according to previously established methods (Zhou 2009). The MTS assay is a colorimetric method for determining the number of viable cells that is based on the bioreduction of MTS by cells to a formazan product that is soluble in cell culture medium and can be detected spectrophotometrically. Ba/F3 cells of different EGFR genotypes were exposed to treatment and the number of cells used per experiment determined empirically and has been previously established (Zhou 2009). All experimental points were set up in six wells and all experiments were repeated at least three times. […] The curves were fitted using a non-linear regression model with a sigmoidal dose response.

For assay [4], the target named is recombinant EGFR T790M/L858R kinase (Homo sapiens (Human), UniProt P00533, L858R/T790M). Put plainly: HTRF-based EGFR biochemical assay. How it is done: EGFR biochemical assays are carried out using a homogeneous time-resolved fluorescence (HTRF) assay. The reaction mixtures contain biotin-Lck-peptide substrate, wild type, or mutant EGFR enzyme in reaction buffer. Enzyme concentrations are adjusted to accommodate varying kinase activity and ATP concentrations. Compounds of the present application are diluted into the assay mixture and IC50 values are determined using 12-point inhibition curves.
EGFR kinase proteins were purified by glutathione-affinity chromatography followed by size-exclusion chromatography after cleavage with TEV or thrombin to remove the GST fusion partner following established procedures. (Yun 2008; Yun 2007).
EGFR biochemical assays were carried out using a homogeneous time-resolved fluorescence (HTRF) assay as described previously. The reaction mixtures contained 1 μM biotin-Lck-peptide substrate, wild type or mutant EGFR enzyme in reaction buffer (50 mM HEPES pH 7.1, 10 mM MgCl2, 0.01% BSA. 1 mM TCEP and 0.1 mM Na3VO4) at a final volume of 10 μL. […] All reactions were carried out at room temperature in white ProxiPlate™ 384-well Plus plates (PerkinElmer) and were quenched with 5 μL of 0.2 M EDTA at 60 min. Five μL per well of the detection reagent containing 2.5 ng PT66K (Cis-bio) and 0.05 μg SAXL (Prozyme) were added, and the plates were then incubated at room temperature for 1 hour and read with an EnVision plate reader.

Where [5] appears, read: Mus musculus, BaF3, read-out: Ba/F3 cellular activity (EC50) T790M/L858R.
Setting [6] is: read-out: Ba/F3 cellular activity (EC50) T790M/L858R + Cetuximab (1 μg/mL), presence of 1 μg/mL cetuximab.

Like-named read-outs stand apart in the source and are kept apart here. Some results are limits rather than exact numbers.

By IC50 is commonly meant the concentration needed to halve the response being measured.

Sequence of recombinant EGFR T790M/L858R kinase (P00533 696-1022 T790M/L858R): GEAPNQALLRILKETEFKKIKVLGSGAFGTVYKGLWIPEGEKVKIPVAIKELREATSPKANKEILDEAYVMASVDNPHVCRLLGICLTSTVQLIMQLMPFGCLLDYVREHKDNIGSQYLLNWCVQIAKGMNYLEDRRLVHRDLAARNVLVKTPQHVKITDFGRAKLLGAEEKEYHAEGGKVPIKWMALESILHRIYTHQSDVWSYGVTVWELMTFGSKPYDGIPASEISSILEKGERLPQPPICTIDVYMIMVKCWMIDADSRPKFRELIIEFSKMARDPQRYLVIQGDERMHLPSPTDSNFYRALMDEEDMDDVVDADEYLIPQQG

Regarding `CN(C)C/C=C/C(=O)Nc1cc2c(Nc3ccc(F)c(Cl)c3)ncnc2cc1O[C@H]1CCOC1` [Afatinib], the RR in assay [1] is given as below 10%.

Turning to `O=C1c2cc(-c3ccc(N4CCNCC4)cc3)ccc2Nc2ccc(F)cc2N1Cc1nccs1` [Compound I-7], the inhibition at 1 µM is at least 75% in assay [2] (Mus musculus, BaF3) and at least 75% in assay [3]. For the same compound, the EC50 in assay [2] (setting [5]) and in assay [2] (setting [6]) was at least 0.75 µM in each case. Moreover, the IC50 in assay [4] was below 0.25 µM.

Take `O=C1c2cc(-c3ccc(N4CCNCC4)cc3)ccc2Nc2ccccc2N1Cc1ccccc1` [Compound I-11]: the inhibition at 1 µM in assay [2] (Mus musculus, BaF3) is at least 75%; in assay [3] it was at least 75%. Besides, the EC50 in assay [2] (setting [5]) is at least 0.75 µM; in assay [2] (setting [6]) it was 0.25 to 0.5 µM. For the same compound, in assay [4], the IC50 is below 0.25 µM.

The record behind these values is patent publication US11584746B2, “Inhibitors of EGFR and methods of use thereof” (DANA-FARBER CANCER INSTITUTE, INC., priority 2018, dated 2023).
